Consider 16 compounds from ChEMBL document CHEMBL1201862, “PubChem BioAssay data set” (2004).

Some test systems named below: A549; MCF7; MDA-MB-435; NCI/ADR-RES; OVCAR-3; PC-3; SN12C; SR; SW-620; TK-10; UACC-257; UO-31; 786-0; DLD-1; DMS-114; KM-20L2; LXFL 529; M19-MEL; SNB-78.
What all share (assay): growth of human tumour cells (NCI), 48 h

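Assay format: 96-well plates, 48-hour exposure. Abbreviation: GI50, concentration required for 50% inhibition of growth.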 Active and inactive are the calls of the source. Rule as the data show it: active = GI50 up to about 1.1 µM and inactive = higher.

Consider `O[C@@]12Cc3c([nH]c4ccccc34)[C@@H]3Oc4cccc5c4[C@@]31CCN(CC1CC1)[C@@H]2C5`, for which the GI50 in the test on A549 was 27 µM (inactive); in the test on MCF7, 17.5 µM (inactive); in the test on MDA-MB-435 it was 15.7 µM (inactive); with NCI/ADR-RES it was 33.4 µM (inactive); in the test on OVCAR-3, 22.3 µM (inactive); in the test with PC-3, 17 µM (inactive). Further, the GI50 with SN12C is 21.7 µM (inactive); in the test with SR it was 34 µM (inactive); in the test with SW-620, 11.4 µM (inactive); with TK-10, 19.2 µM (inactive); with UACC-257 it was 24.9 µM (inactive); in the test with UO-31 it was 18.9 µM (inactive).

`CSc1ncc2c(n1)sc1c(=O)n(-c3ccccc3)cnc12`: the GI50 in the test on 786-0, with A549, with MDA-MB-435, in the test with NCI/ADR-RES, in the test with OVCAR-3 and in the test with PC-3 was > 100 µM (inactive) each time. Besides, the GI50 in the test with SN12C, in the test with SR, with SW-620, in the test with TK-10, in the test with UACC-257 and in the test on UO-31 was > 100 µM (inactive) each time.

In the case of `O=C1N/C(=N/N=C/c2c[nH]c3ccccc23)N/C1=C\c1cccs1`, the GI50 with 786-0 was > 100 µM (inactive); in the test with A549 it was 76.6 µM (inactive); in the test with MCF7 it was 41.4 µM (inactive); in the test on MDA-MB-435 it was 43.3 µM (inactive); in the test on NCI/ADR-RES, 55.3 µM (inactive); with OVCAR-3, 30.7 µM (inactive). Also, the GI50 in the test on PC-3 was 16.1 µM (inactive); in the test with SN12C, > 100 µM (inactive); in the test with SW-620, > 100 µM (inactive); with TK-10 it was > 100 µM (inactive); in the test with UACC-257, 77.3 µM (inactive); in the test with UO-31, > 100 µM (inactive).

Take `CCSc1nc(N/N=C/c2cccs2)c2cnn(CO)c2n1`: the GI50 in the test on 786-0 was 0.0614 µM (active); in the test with A549, 7 µM (inactive); in the test with MCF7 it was 3.59 µM (inactive); in the test on MDA-MB-435, 6.25 µM (inactive); in the test on NCI/ADR-RES, 3.91 µM (inactive); in the test with OVCAR-3 it was 5.86 µM (inactive). The GI50 was 6.58 µM (inactive) with PC-3; 6.44 µM (inactive) in the test on SN12C; 5.9 µM (inactive) in the test with SR; 4.42 µM (inactive) in the test with SW-620; 6.14 µM (inactive) with TK-10; 11.6 µM (inactive) with UACC-257. Further, the GI50 with UO-31 is 2.81 µM (inactive).

For the compound `COc1cc2c(cc1OC)-c1cc3ccccc3c[n+]1CC2`, the GI50 with A549 was > 100 µM (inactive); with MCF7, 70.3 µM (inactive); in the test with MDA-MB-435, > 100 µM (inactive); with NCI/ADR-RES, > 100 µM (inactive); in the test with OVCAR-3, 51.5 µM (inactive); with PC-3 it was > 100 µM (inactive). In addition, the GI50 in the test with SN12C is 39.6 µM (inactive); in the test with SR, 68.2 µM (inactive); in the test on SW-620 it was > 100 µM (inactive); in the test with TK-10 it was > 100 µM (inactive); in the test with UACC-257 it was 89.5 µM (inactive); with UO-31 it was > 100 µM (inactive).

As to `CCCCCCCCCCCCCCCCCc1cc(Cl)nc(Cl)n1`, the GI50 in the test on 786-0 was > 100 µM (inactive); with A549 it was > 100 µM (inactive); in the test with MCF7 it was 36.6 µM (inactive); with MDA-MB-435, > 100 µM (inactive); with NCI/ADR-RES, > 100 µM (inactive); in the test on OVCAR-3, > 100 µM (inactive). For the same compound, the GI50 in the test with PC-3, in the test on SN12C, with SR, in the test on SW-620, in the test on TK-10 and in the test on UACC-257 was > 100 µM (inactive) throughout. Further, the GI50 in the test with UO-31 is > 100 µM (inactive).

In the case of `CC1(C)OC2OC(COC(=O)c3ccc(C#N)cc3)C3OC(C)(C)OC3C2O1` (centres undefined), the GI50 with 786-0, in the test with A549, in the test on MCF7, in the test on MDA-MB-435, in the test on NCI/ADR-RES and with OVCAR-3 was > 75 µM (inactive) in each case. Further, the GI50 with PC-3, with SN12C, with SR, in the test on SW-620, in the test with TK-10 and with UACC-257 was > 75 µM (inactive) each time. Besides, the GI50 in the test on UO-31 is 46.9 µM (inactive).

As for `Nc1ccc(Sc2nnc(N)s2)cc1`, the GI50 in the test with 786-0, in the test with A549, in the test on MCF7, with MDA-MB-435, in the test with NCI/ADR-RES and with PC-3 was > 100 µM (inactive) each time. Moreover, the GI50 with SN12C, with SR, in the test with SW-620, in the test with TK-10, in the test on UACC-257 and in the test on UO-31 was > 100 µM (inactive) each time.

Regarding `CC1=NC=C(O)c2ccccc2O1`, the GI50 in the test on 786-0, with A549, with DLD-1, in the test with DMS-114, in the test with KM-20L2 and in the test on LXFL 529 was > 100 µM (inactive) in each case. For the same compound, the GI50 with M19-MEL, in the test on OVCAR-3, in the test with SN12C, with SNB-78, in the test on SW-620 and with TK-10 was > 100 µM (inactive) in each case. Also, the GI50 was > 100 µM (inactive) in the test with UACC-257 and 85.5 µM (inactive) with UO-31.

In the case of `CN(CCCNc1ccc2ncn3c4ccccc4c(=O)c1c23)CCCN1C(=O)c2cccc3cc([N+](=O)[O-])cc(c23)C1=O`, the GI50 is 0.00628 µM (active) in the test with A549; 0.00541 µM (active) in the test with MCF7; 0.0219 µM (active) with MDA-MB-435; 0.0376 µM (active) in the test with NCI/ADR-RES; 1.1 µM (active) in the test on OVCAR-3; 1.14 µM (inactive) in the test on PC-3. Also, the GI50 was 0.0125 µM (active) with SN12C; 0.001 µM (active) with SR; 0.00325 µM (active) in the test with SW-620; 0.00221 µM (active) in the test on TK-10; 0.0867 µM (active) in the test with UACC-257; 0.015 µM (active) in the test on UO-31.

As to `CNC1=C(C)C(=O)C2=C(C1=O)C(COC(N)=O)C1(OC)C3NC3CN21` (centres undefined), the GI50 in the test with A549 was 0.106 µM (active); in the test on MCF7, 0.107 µM (active); in the test with MDA-MB-435, 1.6 µM (inactive); in the test on OVCAR-3, 3.36 µM (inactive); in the test on PC-3, 2.94 µM (inactive); in the test on SR, 0.0462 µM (active). Also, the GI50 with SW-620 was 0.385 µM (active); with TK-10 it was 3.1 µM (inactive); with UACC-257, 0.951 µM (active); with UO-31, 2.19 µM (inactive).

Take `Oc1ccc2ccccc2c1/N=N/c1cccc2ccccc12`: the GI50 in the test with 786-0 is 66.1 µM (inactive); with A549 it was > 100 µM (inactive); in the test on MCF7, > 100 µM (inactive); in the test on MDA-MB-435, > 100 µM (inactive); in the test on NCI/ADR-RES it was > 100 µM (inactive); with OVCAR-3, > 100 µM (inactive). The GI50 in the test on PC-3, in the test on SN12C, in the test with SR, with SW-620, in the test on TK-10 and with UACC-257 was > 100 µM (inactive) throughout. Moreover, in the test on UO-31, the GI50 was > 100 µM (inactive).

Regarding `O=C1C(=O)c2ccccc2C=C1[N+](=O)[O-]`, the GI50 is 45.1 µM (inactive) in the test on 786-0; > 100 µM (inactive) with A549; 22.9 µM (inactive) in the test with MCF7; 16.8 µM (inactive) with MDA-MB-435; 23 µM (inactive) with NCI/ADR-RES; 23.4 µM (inactive) with OVCAR-3. Moreover, the GI50 in the test on PC-3 is 48.2 µM (inactive); with SN12C it was 29.4 µM (inactive); with SR, 29.4 µM (inactive); in the test on SW-620, 32.9 µM (inactive); in the test with TK-10, > 100 µM (inactive); with UACC-257, 25.2 µM (inactive). Further, in the test on UO-31, the GI50 was > 100 µM (inactive).

With `O=C1CNc2cc(N3CCCCC3)ccc2N1`, the GI50 with A549 was > 100 µM (inactive); in the test on MCF7, > 100 µM (inactive); in the test on MDA-MB-435, 60.4 µM (inactive); in the test on NCI/ADR-RES, > 100 µM (inactive); in the test with OVCAR-3 it was > 100 µM (inactive); in the test with PC-3, > 100 µM (inactive). Also, the GI50 was > 100 µM (inactive) in the test on SN12C; 74.6 µM (inactive) in the test with SR; > 100 µM (inactive) in the test on SW-620; > 100 µM (inactive) in the test with TK-10; > 100 µM (inactive) with UACC-257; > 100 µM (inactive) in the test on UO-31.

Take `COc1cc(O)cc(/C=C/c2ccc(O)cc2)c1`: the GI50 is 29.6 µM (inactive) in the test on 786-0; 27.7 µM (inactive) in the test on A549; 49.2 µM (inactive) in the test on MCF7; 31.3 µM (inactive) with MDA-MB-435; 38.9 µM (inactive) in the test on NCI/ADR-RES; 41.3 µM (inactive) in the test on OVCAR-3. Besides, the GI50 in the test with PC-3 was 18 µM (inactive); with SN12C it was 27.5 µM (inactive); with SR, 42 µM (inactive); with SW-620, 48.8 µM (inactive); in the test on TK-10 it was 29.4 µM (inactive); with UACC-257, 40.8 µM (inactive). Moreover, the GI50 in the test on UO-31 was 39.1 µM (inactive).

For `C=C(C)C(=O)O[C@H]1CC2=C[C@@H](C[C@@]3(C)O[C@@H]3[C@H]3OC(=O)C(=C)[C@@H]31)OC2=O` [ELEPHANTOPIN], the GI50 in the test on A549 was 7.33 µM (inactive); in the test with DLD-1, 0.897 µM (active); with DMS-114 it was 4.47 µM (inactive); in the test with KM-20L2, 4.69 µM (inactive); in the test on M19-MEL, 2.49 µM (inactive); with MCF7, 1.14 µM (inactive). Besides, the GI50 in the test on NCI/ADR-RES is 1.14 µM (inactive); in the test with OVCAR-3, 1.2 µM (inactive); in the test on SN12C it was 4.03 µM (inactive); in the test with SNB-78, 2.09 µM (inactive); in the test on SW-620, 0.695 µM (active); with UACC-257, 1.85 µM (inactive). Besides, the GI50 in the test on UO-31 is 6.07 µM (inactive).
